# Source: patent US20250359547A1, “ALKOXYLATED ALKANOLS FOR ENHANCING THE ACTIVITY OF ANTIMICROBIAL AGENTS” (BASF SE, priority 2022, published 2025)
# System: Escherichia coli (E. coli DSM 682)
# Experiment: Bactericidal activity of cleaner/disinfecting formulations according to DIN EN 1276-2010 under dirty conditions
# Assay type: cell-based
# Details: no ethoxylated alkanol, 0.3% bovine albumin, 35° C., 5 min contact time
# Protocol: For biological activity testing, the following microorganisms were used: Escherichia coli(E. coli DSM 682)
# Lutensol® XP 40 and benzalkonium chloride (BAC) were formulated into a dilutable concentrated hard-surface cleaner. For comparison, corresponding formulations containing Lutensol® XP 70 or Lutensol® A 7 N instead of Lutensol® XP 40 were also prepared. The finished formulations were pre-dissolved 1:80 in standardized hard water (DIN EN 1276-2010) and then diluted to 80% by adding 1 ml of the inoculate and 1 ml of bovine albumin solution to 8 ml of the pre-dissolved cleaner, so that in-test a dilution of 1:100 was obtained.
# (§1) Antimicrobial testing of the above formulations in 1:100 dilution was done according to European Standard (DIN EN 1276-2010) under dirty conditions, i.e. additional soiling of 0.3% bovine albumin at 35° C. and 5 mi contact time. Neutralization was done using the Saponin-containing neutralizer as described in DIN EN 1276 (30 g/l Polysorbate 80+30 g/l Saponin+3 g/l Lecithin). Results are documented in the table below as logarithmic reduction (Ig R) in comparison to the number of microorganisms used for the test.
# Benzalkonium chloride (BAC) and one of Lutensol® XP 30, Lutensol® XP 40 and Lutensol® XP 50 were formulated into a dilutable concentrated hard-surface cleaner. The finished formulations were pre-dissolved 1:80 in standardized hard water (DIN EN 1276-2010) and then diluted to 80% by adding 1 ml of the inoculate and 1 ml of bovine albumin solution to 8 ml of the pre-dissolved cleaner, so that in-test a dilution of 1:100 was obtained.
# as §1, with “5 min” for “5 mi”, “test. […]” for “test.”
SMILES,"E. coli logarithmic reduction (lg R) (Example 1, BAC 40 ppm in-test, 1:100 dilution, pH ca. 8)","E. coli logarithmic reduction (lg R) (Example 2, BAC 40 ppm in-test)","E. coli logarithmic reduction (lg R) (Example 3, DDAC 20 ppm in-test)"
"CCCCCCCCCCCC[N+](C)(C)Cc1ccccc1.[Cl-] [BAC, lauryl dimethyl benzyl ammonium chloride]",<0.87 lg R,0.4 lg R,
"CCCCCCCCCC[N+](C)(C)CCCCCCCCCC.[Cl-] [DDAC, didecyldimethylammonium chloride]",,,0.7 lg R
